Key:
Type in all cases: in vivo
[1] = system: bed bug (Cimex lectularius); experiment: direct spray bioassay against bed bug; settings: for % Mortality: Hour 4; for mortality at 0.05 % strength / mortality at 0.5 % strength / mortality at 5 % strength: Cimex lectularius
Experimental: (§1) To determine if the mixtures provided unexpected results, the observed combined efficacy (“OCE”) was divided by the expected combined efficacy (“ECE”) to give an OCE/ECE ratio wherein the expected ECE is calculated by the Abbott method: […]
(§2) wherein ECE is the expected combined efficacy and in which A and B are the efficacy provided by the single active ingredients. If the ratio between the OCE of the mixture and the ECE of the mixture is greater than 1, then greater than expected interactions are present in the mixture. (Gisi, The American Phytopathological Society, 86:11, 1273-1279, 1996).
(§3) A direct spray bioassay for a mixture of sabadilla and MGK264 bed bug (Cimex lectularius) was conducted on February 27 to Mar. 6, 2019. A water-based formulation containing Sabadilla alone, MGK264 alone, or these combinations were prepared using test products and distilled water. Ten adults (1:1 sex ratio) of the bed bug (Cimex lectularius) were put into 200 mL clean cup (80 mm diameter×45 mm height) laid a filter paper (82 mm diameter) at the bottom. The cup was set on the bottom of CSMA chamber (460 mm×460 mm×700 mm height), and 0.5 mL of water (control) or water-based formulation of test products was sprayed from the distance of 60 cm toward the cup at the air pressure of 0.041 MPa (0.42 kg/cm2). […] The test was repeated 4 times and calculated mortality (%) at each observation point.

[2] = system: German cockroach (Blattella germanica); experiment: direct spray bioassay against German cockroach; settings: for % Mortality: Hour 4; for mortality at 0.05 % strength / mortality at 0.5 % strength / mortality at 5 % strength: Blattella germanica
Experimental: as §1, §2
as §3, with “MGK264 against German cockroach (Blattella germanica)” for “MGK264 bed bug (Cimex lectularius)”, “on Feb. 13-20,” for “on February 27 to Mar. 6,”, “the cockroach” for “the bed bug (Cimex lectularius)”, “and 1.5” for “and 0.5”

[3] = system: house fly (Musca domestica); experiment: direct spray bioassay against house fly; settings: for % Mortality: Hour 4; for mortality at 0.025 % strength / mortality at 0.1 % strength / mortality at 0.25 % strength / mortality at 1 % strength: Musca domestica
Experimental: as §1, §2
(§4) A direct spray bioassay for a mixture of sabadilla N-octyl and MGK264 against house fly (Musca domestica) was conducted on Mar. 6-13, 2019. A water-based formulation containing Sabadilla alone, MGK264 alone, or these combinations were prepared using test products and distilled water. Ten adults (females) of the house fly were put into 650 mL clean cup (100 mm diameter×70 mm height) laid a filter paper (106 mm diameter) at the bottom, and the cup was covered with 1 mm mesh nylon net. The cup was set on the bottom of CSMA chamber (460 mm×460 mm×700 mm height), and 0.5 mL of water (control) or water-based formulation of test products was sprayed from the distance of 30 cm toward the cup at the air pressure of 0.039 MPa (0.4 kg/cm2). […] The test was repeated 4 times and calculated mortality (%) at each observation point.

[4] = system: Yellow fever mosquito (Aedes aegypti); experiment: whole plant or invertebrate; settings: for % Mortality: Hour 4; for mortality at 0.05 % strength / mortality at 0.5 % strength / mortality at 1 % strength / mortality: Aedes aegypti; for mortality at 1 % strength: 1.0 % w/w
Experimental: as §4, with “sabadilla and” for “sabadilla”, “bycloheptene dicarboximide (MGK264)” for “and MGK264”, “Yellow fever mosquito (Aedes aegypti)” for “house fly (Musca domestica)”, “Sep. 20-27,” for “Mar. 6-13,”, “mosquito” for “house fly”
as §1, §2

CCCCC(CC)CN1C(=O)C2C3C=CC(C3)C2C1=O (centres unmarked) [MGK264, N-octyl bicycloheptene dicarboximide]
% Mortality ([1]; 0.05 % w/w): 0.0%
% Mortality ([1]; 0.5 % w/w): 0.0%
% Mortality ([1]; 5.0 % w/w): 0.0%
mortality at 0.05 % strength ([1]; 24 h, 0.05 % w/w, Day 1): 0%
mortality at 0.5 % strength ([1]; 24 h, 0.5 % w/w, Day 1): 0%
mortality at 5 % strength ([1]; 24 h, 5.0 % w/w, Day 1): 0%
mortality at 0.05 % strength ([1]; 48 h, 0.05 % w/w, Day 2): 0%
mortality at 0.5 % strength ([1]; 48 h, 0.5 % w/w, Day 2): 0%
mortality at 5 % strength ([1]; 48 h, 5.0 % w/w, Day 2): 0%
mortality at 0.05 % strength ([1]; 120 h, 0.05 % w/w, Day 5): 0%
mortality at 0.5 % strength ([1]; 120 h, 0.5 % w/w, Day 5): 0%
mortality at 5 % strength ([1]; 120 h, 5.0 % w/w, Day 5): 0%
mortality at 0.05 % strength ([1]; 144 h, 0.05 % w/w, Day 6): 0%
mortality at 0.5 % strength ([1]; 144 h, 0.5 % w/w, Day 6): 0%
mortality at 5 % strength ([1]; 144 h, 5.0 % w/w, Day 6): 0%
mortality at 0.05 % strength ([1]; 168 h, 0.05 % w/w, Day 7): 0%
mortality at 0.5 % strength ([1]; 168 h, 0.5 % w/w, Day 7): 0%
mortality at 5 % strength ([1]; 168 h, 5.0 % w/w, Day 7): 0%
mortality at 0.05 % strength ([1]; 0.05 % w/w, Hour 1): 0%
mortality at 0.5 % strength ([1]; 0.5 % w/w, Hour 1): 0%
mortality at 5 % strength ([1]; 5.0 % w/w, Hour 1): 0%
% Mortality ([2]; 0.05 % w/w): 0.0%
% Mortality ([2]; 0.5 % w/w): 0.0%
% Mortality ([2]; 5.0 % w/w): 0.0%
mortality at 0.05 % strength ([2]; 24 h, 0.05 % w/w, Day 1): 0%
mortality at 0.5 % strength ([2]; 24 h, 0.5 % w/w, Day 1): 0%
mortality at 5 % strength ([2]; 24 h, 5.0 % w/w, Day 1): 0%
mortality at 0.05 % strength ([2]; 48 h, 0.05 % w/w, Day 2): 0%
mortality at 0.5 % strength ([2]; 48 h, 0.5 % w/w, Day 2): 0%
mortality at 5 % strength ([2]; 48 h, 5.0 % w/w, Day 2): 0%
mortality at 0.05 % strength ([2]; 120 h, 0.05 % w/w, Day 5): 2.6%
mortality at 0.5 % strength ([2]; 120 h, 0.5 % w/w, Day 5): 0%
mortality at 5 % strength ([2]; 120 h, 5.0 % w/w, Day 5): 0%
mortality at 0.05 % strength ([2]; 144 h, 0.05 % w/w, Day 6): 2.6%
mortality at 0.5 % strength ([2]; 144 h, 0.5 % w/w, Day 6): 0%
mortality at 5 % strength ([2]; 144 h, 5.0 % w/w, Day 6): 0%
mortality at 0.05 % strength ([2]; 168 h, 0.05 % w/w, Day 7): 2.6%
mortality at 0.5 % strength ([2]; 168 h, 0.5 % w/w, Day 7): 0%
mortality at 5 % strength ([2]; 168 h, 5.0 % w/w, Day 7): 0%
mortality at 0.05 % strength ([2]; 0.05 % w/w, Hour 1): 0%
mortality at 0.5 % strength ([2]; 0.5 % w/w, Hour 1): 0%
mortality at 5 % strength ([2]; 5.0 % w/w, Hour 1): 0%
% Mortality ([3]; 0.025 % w/w): 0.0%
% Mortality ([3]; 0.1 % w/w): 0.0%
% Mortality ([3]; 0.25 % w/w): 0.0%
% Mortality ([3]; 1.0 % w/w): 0.0%
mortality at 0.025 % strength ([3]; 24 h, 0.025 % w/w, Day 1): 0%
mortality at 0.1 % strength ([3]; 24 h, 0.1 % w/w, Day 1): 0%
mortality at 0.25 % strength ([3]; 24 h, 0.25 % w/w, Day 1): 0%
mortality at 1 % strength ([3]; 24 h, 1.0 % w/w, Day 1): 2.5%
mortality at 0.025 % strength ([3]; 48 h, 0.025 % w/w, Day 2): 7.3%
mortality at 0.1 % strength ([3]; 48 h, 0.1 % w/w, Day 2): 10%
mortality at 0.25 % strength ([3]; 48 h, 0.25 % w/w, Day 2): 10%
mortality at 1 % strength ([3]; 48 h, 1.0 % w/w, Day 2): 12.5%
mortality at 0.025 % strength ([3]; 120 h, 0.025 % w/w, Day 5): 34.1%
mortality at 0.1 % strength ([3]; 120 h, 0.1 % w/w, Day 5): 37.5%
mortality at 0.25 % strength ([3]; 120 h, 0.25 % w/w, Day 5): 42.5%
mortality at 1 % strength ([3]; 120 h, 1.0 % w/w, Day 5): 72.5%
mortality at 0.025 % strength ([3]; 144 h, 0.025 % w/w, Day 6): 53.7%
mortality at 0.1 % strength ([3]; 144 h, 0.1 % w/w, Day 6): 37.5%
mortality at 0.25 % strength ([3]; 144 h, 0.25 % w/w, Day 6): 50%
mortality at 1 % strength ([3]; 144 h, 1.0 % w/w, Day 6): 80%
mortality at 0.025 % strength ([3]; 168 h, 0.025 % w/w, Day 7): 68.3%
mortality at 0.1 % strength ([3]; 168 h, 0.1 % w/w, Day 7): 55%
mortality at 0.25 % strength ([3]; 168 h, 0.25 % w/w, Day 7): 60%
mortality at 1 % strength ([3]; 168 h, 1.0 % w/w, Day 7): 87.5%
mortality at 0.025 % strength ([3]; 0.025 % w/w, Hour 1): 0%
mortality at 0.1 % strength ([3]; 0.1 % w/w, Hour 1): 0%
mortality at 0.25 % strength ([3]; 0.25 % w/w, Hour 1): 0%
mortality at 1 % strength ([3]; 1.0 % w/w, Hour 1): 0%
% Mortality ([4]; 0.05 % w/w): 0.0%
% Mortality ([4]; 0.1 % w/w): 0.0%
% Mortality ([4]; 0.5 % w/w): 0.0%
mortality at 0.05 % strength ([4]; 24 h, 0.05 % w/w, Day 1): 0%
mortality at 0.5 % strength ([4]; 24 h, 0.5 % w/w, Day 1): 0%
mortality at 1 % strength ([4]; 24 h, Day 1): 10%
mortality ([4]; 24 h, Day 1): 0%
mortality at 0.5 % strength ([4]; 48 h, 0.5 % w/w, Day 2): 0%
mortality at 1 % strength ([4]; 48 h, Day 2): 12.5%
mortality at 0.05 % strength ([4]; 120 h, 0.05 % w/w, Day 5): 0%
mortality at 0.5 % strength ([4]; 120 h, 0.5 % w/w, Day 5): 0%
mortality at 1 % strength ([4]; 120 h, Day 5): 12.5%
mortality at 0.5 % strength ([4]; 144 h, 0.5 % w/w, Day 6): 0%
mortality at 1 % strength ([4]; 144 h, Day 6): 12.5%
mortality at 0.05 % strength ([4]; 168 h, 0.05 % w/w, Day 7): 0%
mortality at 0.5 % strength ([4]; 168 h, 0.5 % w/w, Day 7): 0%
mortality at 1 % strength ([4]; 168 h, Day 7): 12.5%
mortality ([4]; 168 h, Day 7): 2.5%
mortality at 0.05 % strength ([4]; 0.05 % w/w, Hour 1): 0%
mortality at 0.5 % strength ([4]; 0.5 % w/w, Hour 1): 0%
mortality at 1 % strength ([4]; Hour 1): 7.5%
mortality ([4]; Hour 1): 0%

Source: patent US20200138031A1, “MIXTURES OF SABADILLA ALKALOIDS AND N-OCTYL BICYCLOHEPTENE DICARBOXIMIDE AND USES THEREOF” (priority 2016, published 2020)
